The numbers were not newly measured in patent publication US12324431B2, “Compositions and methods for scalable production and delivery of biologicals” (priority 2017, dated 2025), which cites them from elsewhere.

The data set relates to insects. The note with it: potency similar to imidacloprid.

With “orally active insecticidal peptide-1 [OAIP-1]”, the toxicity to insects entry was “highly toxic”.
